≈ marks a conversion by molar mass, not a printed value.
Key:
S. dublin S7 = test: MIC against Veterinary Bacteria, in vitro agar dilution; details: Salmonella enterica, S7, 18 h, read-out: MIC's against S. dublin S7
Description: (§1) The activity of the compounds of the Examples against various veterinarily important bacteria, was assayed in vitro using two-fold serial dilutions in Diagnostic Sensitivity Test Agar inoculated with 10^4 organisms.

E. coli NCTC 10418 = test: as above; details: Escherichia coli, NCTC10418, 18 h, read-out: MIC's against E. coli NCTC 10418
Description: as §1

Past. multocida PA1 = test: as above; details: Pasteurella multocida, PA1, 18 h, read-out: MIC's against Past. multocida PA1
Description: as §1

[1] = test system: Staph. aureus 152 (pen. sens); test: as above; details: Staphylococcus aureus, 18 h, read-out: MIC's against Staph. aureus 152 (pen. sens)
Description: as §1

M. hyorhinis ATCC 23234 = test: MIC against Mycoplasma, in vitro agar dilution; format: cell-based; details: Mesomycoplasma hyorhinis, ATCC23234, 144 h; Friis broth solidified with 0.9% agarose, 10^3 to 10^5 C.F.U., 6 days at 37°C; read-out: MIC's against M. hyorhinis ATCC 23234
[2] = test system: Strep. suis (group D) SPS11; test: MIC against Veterinary Bacteria, in vitro agar dilution; details: Streptococcus suis, 18 h, read-out: MIC's against Strep. suis (group D) SPS11
Description: as §1

M. suipneumoniae LABER = test: MIC against Mycoplasma, in vitro agar dilution; format: cell-based; details: Mesomycoplasma hyopneumoniae, 144 h; Friis broth solidified with 0.9% agarose, 10^3 to 10^5 C.F.U., 6 days at 37°C; read-out: MIC's against M. suipneumoniae LABER
Staph. aureus Oxford = test: MIC against Veterinary Bacteria, in vitro agar dilution; details: Staphylococcus aureus, 18 h, read-out: MIC's against Staph. aureus Oxford
Description: as §1

Strep. agalactiae SPA1 = test: as above; details: Streptococcus agalactiae, SPA1, 18 h, read-out: MIC's against Strep. agalactiae SPA1
Description: as §1

M. hyorhinis ATCC 25021 = test: MIC against Mycoplasma, in vitro agar dilution; format: cell-based; details: Mesomycoplasma hyorhinis, ATCC25021, 144 h; Friis broth solidified with 0.9% agarose, 10^3 to 10^5 C.F.U., 6 days at 37°C; read-out: MIC's against M. hyorhinis ATCC 25021
[3] = test system: Staph. aureus B4 (pen. resistant); test: MIC against Veterinary Bacteria, in vitro agar dilution; details: Staphylococcus aureus, 18 h, read-out: MIC's against Staph. aureus B4 (pen. resistant)
Description: as §1

Strep. uberis SPU1 = test: as above; details: Streptococcus uberis, SPU1, 18 h, read-out: MIC's against Strep. uberis SPU1
Description: as §1

M. pneumoniae ATCC 15492 = test: MIC against Mycoplasma, in vitro agar dilution; format: cell-based; details: Mycoplasmoides pneumoniae, ATCC15492, 144 h; Friis broth solidified with 0.9% agarose, 10^3 to 10^5 C.F.U., 6 days at 37°C; read-out: MIC's against M. pneumoniae ATCC 15492
M. gallisepticum S6 = test: MIC against Mycoplasma, in vitro agar dilution; format: cell-based; details: Mycoplasmoides gallisepticum, S6, 144 h; Friis broth solidified with 0.9% agarose, 10^3 to 10^5 C.F.U., 6 days at 37°C; read-out: MIC's against M. gallisepticum S6
Bord. bronchiseptica B09 = test: MIC against Veterinary Bacteria, in vitro agar dilution; details: Bordetella bronchiseptica, B09, 18 h, read-out: MIC's against Bord. bronchiseptica B09
Description: as §1

[4] = test system: Erysipelothrix rhusiopathiae NCTC 8163; test: as above; details: Erysipelothrix rhusiopathiae, NCTC8163, 18 h, read-out: MIC's against Erysipelothrix rhusiopathiae NCTC 8163
Description: as §1

[5] = test system: M. hyosynoviae ATCC 25591; test: MIC against Mycoplasma, in vitro agar dilution; format: cell-based; details: 144 h; Friis broth solidified with 0.9% agarose, 10^3 to 10^5 C.F.U., 6 days at 37°C; read-out: MIC's against M. hyosynoviae ATCC 25591
Bord. bronchiseptica B08 = test: MIC against Veterinary Bacteria, in vitro agar dilution; details: Bordetella bronchiseptica, B08, 18 h, read-out: MIC's against Bord. bronchiseptica B08
Description: as §1

Past. haemolytica PA5 = test: as above; details: Mannheimia haemolytica, PA5, 18 h, read-out: MIC's against Past. haemolytica PA5
Description: as §1

M. suipneumoniae UCD 1 = test: MIC against Mycoplasma, in vitro agar dilution; format: cell-based; details: Mesomycoplasma hyopneumoniae, UCD1, 144 h; Friis broth solidified with 0.9% agarose, 10^3 to 10^5 C.F.U., 6 days at 37°C; read-out: MIC's against M. suipneumoniae UCD 1
M. suipneumoniae MS 16 = test: MIC against Mycoplasma, in vitro agar dilution; format: cell-based; details: Mesomycoplasma hyopneumoniae, MS16, 144 h; Friis broth solidified with 0.9% agarose, 10^3 to 10^5 C.F.U., 6 days at 37°C; read-out: MIC's against M. suipneumoniae MS 16
M. suipneumoniae NB12 = test: MIC against Mycoplasma, in vitro agar dilution; format: cell-based; details: Mesomycoplasma hyopneumoniae, NB12, 144 h; Friis broth solidified with 0.9% agarose, 10^3 to 10^5 C.F.U., 6 days at 37°C; read-out: MIC's against M. suipneumoniae NB12
Past. multocida PA2 = test: MIC against Veterinary Bacteria, in vitro agar dilution; details: Pasteurella multocida, PA2, 18 h, read-out: MIC's against Past. multocida PA2
Description: as §1

[6] = test system: M. suipneumoniae ATCC 25095; test: MIC against Mycoplasma, in vitro agar dilution; format: cell-based; details: Mesomycoplasma hyopneumoniae, ATCC25095, 144 h; Friis broth solidified with 0.9% agarose, 10^3 to 10^5 C.F.U., 6 days at 37°C; read-out: MIC's against M. suipneumoniae ATCC 25095

Structure (SMILES)	MIC (S. dublin S7)	MIC (E. coli NCTC 10418)	MIC (Past. multocida PA1)	MIC [1]	MIC (M. hyorhinis ATCC 23234)	MIC [2]	MIC (M. suipneumoniae LABER)	MIC (Staph. aureus Oxford)	MIC (Strep. agalactiae SPA1)	MIC (M. hyorhinis ATCC 25021)	MIC [3]	MIC (Strep. uberis SPU1)	MIC (M. gallisepticum S6)	MIC (Bord. bronchiseptica B09)	MIC [4]	MIC [5]	MIC (Bord. bronchiseptica B08)	MIC (Past. haemolytica PA5)	MIC (M. suipneumoniae UCD 1)	MIC (M. suipneumoniae MS 16)	further results
CCOC(=O)C(C)=C(C)CC1OCC(CC2OC2C(C)C(C)O)C(O)C1O [Example 1, Ethyl 4-[5S-(2S,3S-epoxy-5S-hydroxy-4S-methylhexyl)-3R,4R-dihydroxytetrahydropyran-2S-yl]-2,3-dimethylbut-2(E)-enoate]	> 80 µg/mL	> 80 µg/mL	2.5 µg/mL (≈ 6.47 µM)	0.625 µg/mL (≈ 1.62 µM)	0.5 µg/mL (≈ 1.29 µM)	> 80 µg/mL	1 µg/mL (≈ 2.59 µM)	0.625 µg/mL (≈ 1.62 µM)	5 µg/mL (≈ 12.9 µM)	0.5 µg/mL (≈ 1.29 µM)	0.625 µg/mL (≈ 1.62 µM)	1.25 µg/mL (≈ 3.23 µM)	> 10 µg/mL	80 µg/mL (≈ 207 µM)	80 µg/mL (≈ 207 µM)	1 µg/mL (≈ 2.59 µM)	> 80 µg/mL	20 µg/mL (≈ 51.7 µM)	2.5 µg/mL (≈ 6.47 µM)	0.5 µg/mL (≈ 1.29 µM)	MIC (M. pneumoniae ATCC 15492): 10 µg/mL (≈ 25.9 µM); MIC (M. suipneumoniae NB12): 1 µg/mL (≈ 2.59 µM); MIC (Past. multocida PA2): 1.25 µg/mL (≈ 3.23 µM); MIC [6]: 1 µg/mL (≈ 2.59 µM)
COC(=O)C(C)=C(C)CC1OCC(CC2OC2C(C)C(C)O)C(O)C1O [Example 2, Methyl 4-[5S-(2S,3S-epoxy-5S-hydroxy-4S-methylhexyl)-3R,4R-dihydroxytetrahydropyran-2S-yl]-2,3-dimethylbut-2(E)-enoate]	> 80 µg/mL	> 80 µg/mL	10 µg/mL (≈ 26.8 µM)	5 µg/mL (≈ 13.4 µM)	5 µg/mL (≈ 13.4 µM)	> 80 µg/mL	5 µg/mL (≈ 13.4 µM)	5 µg/mL (≈ 13.4 µM)	80 µg/mL (≈ 215 µM)	5 µg/mL (≈ 13.4 µM)	5 µg/mL (≈ 13.4 µM)	20 µg/mL (≈ 53.7 µM)	> 10 µg/mL	40 µg/mL (≈ 107 µM)	> 80 µg/mL	5 µg/mL (≈ 13.4 µM)	> 80 µg/mL	40 µg/mL (≈ 107 µM)	10 µg/mL (≈ 26.8 µM)	5 µg/mL (≈ 13.4 µM)	MIC (M. suipneumoniae NB12): 5 µg/mL (≈ 13.4 µM); MIC (Past. multocida PA2): 5 µg/mL (≈ 13.4 µM); MIC [6]: 5 µg/mL (≈ 13.4 µM)
CC(CC1OCC(CC2OC2C(C)C(C)O)C(O)C1O)=C(C)C(=O)O [Example 4, Sodium 4-[5S-(2S, 35-epoxy-5S-hydroxy-4S-methylhexyl)-3R,4R-dihydroxytetrahydropyran-2S-yl]-2,3-dimethylbut-2(E)-enoate]	> 80 µg/mL	> 80 µg/mL	5 µg/mL	1.25 µg/mL	0.1 µg/mL	20 µg/mL	0.1 µg/mL	1.25 µg/mL	1.25 µg/mL	0.1 µg/mL	1.25 µg/mL	0.156 µg/mL	5 µg/mL	40 µg/mL	80 µg/mL	0.25 µg/mL	> 80 µg/mL	10 µg/mL	0.25 µg/mL	0.1 µg/mL	MIC (M. pneumoniae ATCC 15492): 5 µg/mL; MIC (M. suipneumoniae NB12): 0.25 µg/mL; MIC (Past. multocida PA2): 2.5 µg/mL; MIC [6]: 0.25 µg/mL
CC(CC1OCC(CC2OC2C(C)C(C)O)C(O)C1O)=C(C)C(=O)OCc1cccc([N+](=O)[O-])c1 [Example 3, m-Nitrobenzyl 4-[5S-(2S,3S-epoxy-5S-hydroxy-4S-methylhexyl)-3R,4R-dihydroxytetrahydropyran-2S-yl]-2,3-di-methylbut-2(E)-enoate]	> 80 µg/mL	> 80 µg/mL	2.5 µg/mL (≈ 5.07 µM)	1.25 µg/mL (≈ 2.53 µM)	0.025 µg/mL (≈ 0.0507 µM)	10 µg/mL (≈ 20.3 µM)	0.05 µg/mL (≈ 0.101 µM)	1.25 µg/mL (≈ 2.53 µM)	1.25 µg/mL (≈ 2.53 µM)	0.025 µg/mL (≈ 0.0507 µM)	1.25 µg/mL (≈ 2.53 µM)	0.156 µg/mL (≈ 0.316 µM)	5 µg/mL (≈ 10.1 µM)	80 µg/mL (≈ 162 µM)	40 µg/mL (≈ 81 µM)	0.25 µg/mL (≈ 0.507 µM)	80 µg/mL (≈ 162 µM)	10 µg/mL (≈ 20.3 µM)	0.05 µg/mL (≈ 0.101 µM)	0.025 µg/mL (≈ 0.0507 µM)	MIC (M. pneumoniae ATCC 15492): 2.5 µg/mL (≈ 5.07 µM); MIC (M. suipneumoniae NB12): 0.05 µg/mL (≈ 0.101 µM); MIC (Past. multocida PA2): 1.25 µg/mL (≈ 2.53 µM); MIC [6]: 0.025 µg/mL (≈ 0.0507 µM)

Source: patent publication EP0090603A2, “Antibacterial compounds” (BEECHAM GROUP PLC, priority 1982, dated 1983)
